Data reported in article PMC9304066, “H2S biogenesis by cystathionine beta-synthase: mechanism of inhibition by aminooxyacetic acid and unexpected role of serine” (Cellular and Molecular Life Sciences: CMLS, 2022).
Several values for one entry are separate records, joined by “and”; a condition that tells them apart may be missing. Identical values can stand only once.

What was measured:
HEK293 cells = assay: Cell viability (MTT); type: cell-based, human; settings: Ser 0.15–10 mM
Procedure: Cell culture. The human embryonic kidney cell line HEK293 (ATCC CRL-1573) was cultured in Dulbecco’s Modified Eagle Medium (DMEM) containing 4.5 g/L glucose. The culture medium was supplemented with 10% (v/v) heat-inactivated fetal bovine serum, 2 mM Glutamax, non-essential amino acids, 100 U/ml penicillin and 100 μg/ml streptomycin. Cells were grown in a humidified incubator at 37 °C and 5% CO2 atmosphere. Cell viability and proliferation were assessed using MTT and BrdU assay, respectively, essentially as described previously.

HsCBS [1] = target: T1, HsCBS (Homo sapiens, UniProt P35520, DEL516-525); assay: CBS H2S production assay (AzMC fluorometric), HsCBS; type: biochemical; settings: for IC50: AzMC assay, 5 mM Cys + 2 mM Hcy
T1 construct: purchased GenScript
T1 sequence (P35520 with tags, fused parts or gaps DEL516-525): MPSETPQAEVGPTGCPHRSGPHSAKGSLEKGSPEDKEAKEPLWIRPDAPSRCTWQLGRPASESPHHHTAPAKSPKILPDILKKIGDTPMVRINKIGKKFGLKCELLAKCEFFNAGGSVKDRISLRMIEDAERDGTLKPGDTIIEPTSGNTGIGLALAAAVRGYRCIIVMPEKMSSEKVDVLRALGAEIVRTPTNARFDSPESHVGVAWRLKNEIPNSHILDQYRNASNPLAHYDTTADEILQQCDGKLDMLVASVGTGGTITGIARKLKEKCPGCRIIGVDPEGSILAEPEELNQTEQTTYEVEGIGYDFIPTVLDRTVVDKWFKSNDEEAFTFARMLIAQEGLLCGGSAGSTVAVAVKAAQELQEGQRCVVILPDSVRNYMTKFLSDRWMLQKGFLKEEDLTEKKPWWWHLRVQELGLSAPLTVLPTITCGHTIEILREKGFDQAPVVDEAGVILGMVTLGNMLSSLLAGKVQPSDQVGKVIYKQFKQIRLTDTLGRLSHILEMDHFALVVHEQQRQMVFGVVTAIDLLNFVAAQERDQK
Procedure: CBS H2S production assay. H2S-producing activity of CBS, utilizing Cys and Hcy, was determined using a fluorometric assay employing the H2S-selective fluorescent probe 7-azido-4-methylcoumarin (AzMC) as described previously. The reaction mixture in a total volume of 200 µL contained 50 mM Tris–HCl pH 8.6, 5 μM PLP, 2 mM Hcy, 10 μM AzMC and 500 ng tScCBS or HsCBS. The plate was incubated for 10 min at 37°C and the enzymatic activity was triggered by adding 0–50 mM Cys. The fluorescence of the mixtures at 450 nm (excited at 365 nm) was followed for 2 h at 37°C. All measurements were performed in triplicates using Tecan Infinite 200 PRO microplate reader. Kinetic data were analyzed using GraphPad Prism software.

tScCBS [2] = target: T2, tScCBS (Saccharomyces cerevisiae, UniProt P32582); assay: Fluorescence emission titration of tScCBS (PLP excitation at 410 nm); type: binding; settings: tScCBS 1 mg/mL, pH 8.5; decrease in emission at 520 nm, excitation 410 nm; read-out: Dissociation constant Kd (fluorescence)
T2 construct: 6xHis (C); made in house
T2 sequence (P32582 1-345): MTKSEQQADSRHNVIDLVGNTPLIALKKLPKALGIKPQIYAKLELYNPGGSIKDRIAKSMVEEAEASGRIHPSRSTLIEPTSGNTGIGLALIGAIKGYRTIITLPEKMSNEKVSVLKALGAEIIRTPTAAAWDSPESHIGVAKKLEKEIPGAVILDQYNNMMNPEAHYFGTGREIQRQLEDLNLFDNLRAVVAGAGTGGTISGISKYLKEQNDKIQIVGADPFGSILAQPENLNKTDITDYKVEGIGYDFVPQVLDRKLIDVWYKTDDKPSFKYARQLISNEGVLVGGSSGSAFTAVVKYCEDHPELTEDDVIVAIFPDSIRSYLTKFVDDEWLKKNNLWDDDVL
Procedure: (§1) CBS enzymes. Recombinant truncated Saccharomyces cerevisiae CBS lacking the C-terminal regulatory domain (residues 346–507) and carrying the C-terminal 6xHis tag (tScCBS) was prepared as described previously. Engineered recombinant Homo sapiens CBS lacking a loop protruding from the central β-strand of the CBS2 domain corresponding to the residues 516–525 (HsCBS; described in detail in [21]) was purchased from GenScript.
(§2) UV − Vis and fluorescence spectroscopy. Absorption spectra were collected on a Tecan Infinite M200 Pro spectrophotometer in a buffer containing 50 mM Tris–HCl pH 8.5, 20 mM NaCl and 0.5 mM tris(2-carboxyethyl)phosphine (TCEP). All the spectra were carried out with a protein concentration of 1 mg/mL with a 1 cm path-length quartz cuvette in a total volume of 150 µL. tScCBS was titrated directly in a cuvette by successive additions of different concentrations of AOAA, Ser and Cys, respectively, and spectra were recorded between 240 and 600 nm after an incubation time of 3 min at RT. Fluorescence emission spectra were collected under the same conditions upon PLP excitation at 410 nm. Blank spectra were subtracted from sample spectra.

HsCBS [3] = target: T1, HsCBS; assay: CBL-LDH coupled-coupled CBS assay, HsCBS; type: biochemical; settings: for Vmax / kcat: CBL-LDH coupled-coupled assay; for Reduction of activity catalyzing condensation of Cys and Hcy yielding H2S: AOAA-inhibited HsCBS (200 µM AOAA)
Procedure: CBS coupled-coupled assay. CBS canonical activity utilizing Ser and Hcy was determined using cystathionine beta-lyase (CBL) and lactate-dehydrogenase (LDH) coupled-coupled assay as described previously with a few modifications. Native L-LDH from rabbit muscle was purchased from Sigma (catalog no. L2500) and recombinant CBL was purchased from Creative Enzymes (catalog no. NATE-1146). In a final volume of 150 µL, the reaction mixture contained 50 mM Tris–HCl pH 8.9, 20 µM PLP, 500 µM NADH, 1.3 µM LDH, 0.1 µM CBL, 0–20 mM Ser (or 0–50 mM Cys) and 500 ng of tScCBS or HsCBS. Assays with HsCBS were carried out in the absence or presence of 500 µM CBS allosteric activator S-adenosylmethionine (SAM). The reaction was triggered by the addition of 2 mM Hcy and the oxidation of NADH to NAD^+ was followed by monitoring the decrease in absorbance at 340 nm over time (ε340 = 6220 M^−1.cm^−1). […] All measurements were performed in triplicates using Tecan Infinite 200 PRO microplate reader. Kinetic data were analyzed using GraphPad Prism software.

tScCBS [4] = target: T2, tScCBS; assay: UV-Vis absorption titration of tScCBS (dissociation constants); type: binding; settings: tScCBS 1 mg/mL, pH 8.5; decrease in absorbance at 412 nm (AOAA), increase at 460 nm (Ser) or 440 nm (Cys); 3 min incubation; read-out: Dissociation constant Kd (UV-Vis absorption)
Procedure: as §1, §2

Row | Recovery of activity of AOAA-inhibited enzyme (HsCBS [1]; HsCBS in the absence and presence of SAM, 1 mM Ser after 200 µM AOAA incubation, then desalting) | Kd (tScCBS [2]) [µM] | Vmax (HsCBS [3]; HsCBS + SAM) [µmol/h/mg] | kcat (HsCBS [3]; HsCBS + SAM) [s⁻¹] | Vmax (HsCBS [3]; HsCBS – SAM) [µmol/h/mg] | kcat (HsCBS [3]; HsCBS – SAM) [s⁻¹] | SMILES | Cell viability (HEK293 cells) | Kd (tScCBS [4]) | IC50 (HsCBS [1]; HsCBS in the absence of SAM) [µM] | IC50 (HsCBS [1]; HsCBS in the presence of 500 µM SAM) [µM] | Reduction of activity catalyzing condensation of Cys and Hcy yielding H2S (HsCBS [3]; absence of SAM) [%] | Reduction of activity catalyzing condensation of Cys and Hcy yielding H2S (HsCBS [3]; presence of SAM) [%] | Effect on condensation of Ser and Hcy (canonical reaction) (HsCBS [3]; HsCBS ± 500 µM SAM inhibited by 200 µM AOAA, 5 mM Ser + 2 mM Hcy)
1 | substantial recovery | 39.5 ± 8.26 | 156.3 ± 7.6 | 2.7 ± 0.1 | 37.2 ± 1.5 | 0.63 ± 0.06 | N[C@@H](CO)C(=O)O [Ser, serine] | did not affect | ~58 µM and 58.6 µM |  |  |  |  | 
2 |  |  |  |  |  |  | NOCC(=O)O [AOAA, aminooxyacetic acid] |  | ~6 µM | 12.8 | 10.9 | 63 | 71 | not impaired
